{"source": "patent US9603841B2", "about": "“Vector delivery-based microbicides” (Rush University Medical Center, priority 2005, dated 2017)", "key": {"[1]": {"conditions": "0.5 mM in 0.1 M PBS, pH 7.4, 37° C.; cited from earlier work"}, "[2]": {"system": "spermatozoa", "conditions": "cited from earlier work"}, "[3]": {"target": "human spermatozoa", "experiment": "Inhibition of fractionated NO23-SAMMA-induced acrosomal loss by protein kinase G inhibitor", "type": "cell-based", "conditions": "Ca2+-independent (absence of added extracellular Ca2+)", "text": "NO23-SAMMA, whether fractionated or not, appears, at least in part, to act through release of nitric oxide. Fractionated NO23-SAMMA-induced acrosomal loss in the absence of added extracellular Ca^2+ is inhibited by the selective protein kinase G inhibitor KT5823 (see FIG. 6). […] Acrosomal loss in human spermatozoa in response to NO donors is inhibited by protein kinase G inhibitors ([…] et al., “Signaling pathway of nitric oxide-induced acrosome reaction in human spermatozoa”, Biol. Reprod., 64: 1708-12 (2001)). […] Inhibition of acrosomal loss by the selective protein kinase G inhibitor supports this contention."}, "[4]": {"system": "spermatozoa", "conditions": "cited from earlier work", "remark": "listed apart in the source"}, "[5]": {"system": "human spermatozoa", "experiment": "Acrosomal loss (AL) in human spermatozoa", "type": "cell-based", "conditions": "for pEC50: Homo sapiens, Spermatozoa", "description": "Measurement of AL was carried out as described previously. […] All reactions were carried out in either the presence or absence of added extracellular Ca^2+ (1.28 mM). […] Data are expressed as the average % maximal response, based on the AL induced by a maximally stimulating concentration of the calcium ionophore A23187.\nUnless otherwise noted, acrosomal loss data were obtained from assays that included Ca^2+ in the extracellular medium. In contrast, acrosomal loss induced by NO donors occurs independent of Ca^2+. […] Although not wishing to be limited by theory, it appears that acrosomal loss in the presence of added extracellular Ca^2+ may be due to either or both moieties, whereas acrosomal loss in the absence of Ca^2+ is due entirely to the NO donor moiety."}, "[6]": {"system": "spermatozoa", "experiment": "Sperm immobilization (modified Sander and Cramer), motile spermatozoa", "type": "cell-based", "conditions": "10 mM", "text": "Data are presented as the percentage of motile spermatozoa at each concentration of test agent. When possible, test outcomes were also reported as the concentration of agent in the semen sample that reduces motility by 50%."}, "[7]": {"system": "HIV-1 Bee", "experiment": "HIV-1 infected primary lymphocytes, agent added after inoculation (p24, day 7)", "type": "cell-based", "conditions": "agent added after 2 h inoculation and washing, p24 on day 7", "description": "HIV is sensitive to inhibition by the NO donor used to synthesize NO-SAMMA (nitrooxypropanol), although substantially less than to NO-SAMMA. […] Viral replication was measured on day 7 of incubation (p24 levels)."}, "[8]": {"system": "hyaluronidase", "experiment": "Hyaluronidase activity inhibition", "type": "biochemical", "conditions": "50 μM", "description": "Hyaluronidase activity was measured as described in Example 8 of U.S. Pat. No. 5,932,619. […] In contrast, the NO donor moiety of NO23-SAMMA, nitrooxypropanol, is nearly without effect."}, "[9]": {"system": "C. trachomatis (serotype E/UW-5/CX)", "experiment": "Infection of HeLa cells by C. trachomatis", "type": "cell-based, Chlamydia trachomatis", "conditions": "read-out: IC50 against C. trachomatis", "description": "Effect of NO-SAMMA against C. trachomatis. […] This was followed by inoculation of the monolayer with chlamydial elementary bodies. One hour after inoculation, free microbes and/or microbicide were removed by washing, and the HeLa cell cultures were incubated for an additional 48 hours at 37° C. Chlamydia-induced inclusions were measured by immunofluorescence, after reacting cultures with Kallsted chlamydia culture confirmation fluorescein-conjugated monoclonal antibody."}, "[10]": {"system": "vaginal/cervical epithelial and other cells", "conditions": "cited from earlier work"}}, "note": "pEC50, pIC50: −log10 of the molar value. Like-named read-outs stand apart in the source and are kept apart here.", "data": [{"compound": "CC/C(=C\\C(=N/O)C(N)=O)C(C)[N+](=O)[O-]", "note": "(racemic) [NOR-3, (±)-E-4-ethyl-2-[(E)-hydroxyimino]-5 nitro-3-hexenamide]", "values": [{"measurement": "half-life", "setting": "[1]", "result": "about 30 minutes"}]}, {"compound": "NCCOB(c1ccccc1)c1ccccc1", "note": "[2-APB]", "values": [{"measurement": "effect on SAMMA-induced acrosomal loss", "setting": "[2]", "result": "not inhibited"}]}, {"compound": "CCCCCCOC(=O)[C@]1(O)C[C@@H]2O[C@@]1(C)n1c3ccccc3c3c4c(c5c6ccccc6n2c5c31)C(=O)NC4", "note": "[KT5720]", "values": [{"measurement": "effect on SAMMA-induced acrosomal loss", "setting": "[2]", "result": "not inhibited"}]}, {"compound": "COC(=O)[C@@]1(OC)C[C@H]2O[C@]1(C)n1c3ccccc3c3c4c(c5c6ccccc6n2c5c31)C(=O)N(C)C4", "note": "[KT5823]", "values": [{"measurement": "pIC50", "setting": "[3]", "result": 6.15}, {"measurement": "inhibition of SAMMA-induced acrosomal loss", "setting": "[2]; 2 μM", "result": "> 95", "unit": "%"}, {"measurement": "effect on NO donor-induced acrosomal loss", "setting": "[4]; 2 μM", "result": "not inhibited"}]}, {"compound": "O=[N+]([O-])OCCCO", "note": "[Nitrooxypropanol, 3-nitrooxy-1-propanol]", "values": [{"measurement": "pEC50", "setting": "[5]; Ca2+-independent, read-out: ED50 acrosomal loss", "result": 6.92}, {"measurement": "pEC50", "setting": "[5]; read-out: ED50 as a stimulus of acrosomal loss", "result": 6.92}, {"measurement": "% Motile Spermatozoa av ± SEM (n = 4)", "setting": "[6]", "result": "66 ± 0.5", "unit": "at 10 mM %"}, {"measurement": "IC50", "setting": "[7]; Human immunodeficiency virus 1, Lymphocyte", "result": 2540, "unit": "µg/mL"}, {"measurement": "concentration giving 80% reduction (printed in the 3-Log reduction column)", "setting": "[7]", "result": "1017 (80% reduction) μg/mL"}, {"measurement": "Inhibition ± SEM (N = 4)", "setting": "[8]", "result": "8 ± 1.8", "unit": "% at 50 μM"}]}, {"compound": "O=c1onc2cnc3ccccc3n12", "note": "[ODQ]", "values": [{"measurement": "inhibition of SAMMA-induced acrosomal loss", "setting": "[2]; 0.1 μM", "result": "~50", "unit": "%"}]}, {"compound": "O=c1c2nc(Br)n([C@@H]3O[C@@H]4CO[P@@](O)(=S)O[C@H]4[C@H]3O)c2nc2[nH]c(-c3ccccc3)cn12", "note": "[Rp-8-Br-PET-cGMPS]", "values": [{"measurement": "effect on NO donor-induced acrosomal loss", "setting": "[4]; 0.35 μM", "result": "not inhibited"}]}, {"compound": "nitroprusside", "values": [{"measurement": "% maximal AL", "setting": "[5]; 22 μM", "result": 74, "unit": "%"}, {"measurement": "pIC50", "setting": "[9]", "result": 4.64}]}, {"compound": "nonoxynol-9", "values": [{"measurement": "lowest concentration that can injure cells", "setting": "[10]", "result": "about 0.0005%"}]}]}
